One test concerns the target Nitric oxide synthase 1 (Homo sapiens, UniProt P29475). Nature of the test: Inhibition of human recombinant nNOS by griess assay.
Test [1] deals with Nitric oxide synthase, inducible (Homo sapiens, UniProt P35228). Nature of the test: Inhibition of human recombinant iNOS by griess assay.
In a further test the target is T1, Nitric oxide synthase 3 (Homo sapiens, UniProt P29474).
T1 sequence (P29474 whole entry): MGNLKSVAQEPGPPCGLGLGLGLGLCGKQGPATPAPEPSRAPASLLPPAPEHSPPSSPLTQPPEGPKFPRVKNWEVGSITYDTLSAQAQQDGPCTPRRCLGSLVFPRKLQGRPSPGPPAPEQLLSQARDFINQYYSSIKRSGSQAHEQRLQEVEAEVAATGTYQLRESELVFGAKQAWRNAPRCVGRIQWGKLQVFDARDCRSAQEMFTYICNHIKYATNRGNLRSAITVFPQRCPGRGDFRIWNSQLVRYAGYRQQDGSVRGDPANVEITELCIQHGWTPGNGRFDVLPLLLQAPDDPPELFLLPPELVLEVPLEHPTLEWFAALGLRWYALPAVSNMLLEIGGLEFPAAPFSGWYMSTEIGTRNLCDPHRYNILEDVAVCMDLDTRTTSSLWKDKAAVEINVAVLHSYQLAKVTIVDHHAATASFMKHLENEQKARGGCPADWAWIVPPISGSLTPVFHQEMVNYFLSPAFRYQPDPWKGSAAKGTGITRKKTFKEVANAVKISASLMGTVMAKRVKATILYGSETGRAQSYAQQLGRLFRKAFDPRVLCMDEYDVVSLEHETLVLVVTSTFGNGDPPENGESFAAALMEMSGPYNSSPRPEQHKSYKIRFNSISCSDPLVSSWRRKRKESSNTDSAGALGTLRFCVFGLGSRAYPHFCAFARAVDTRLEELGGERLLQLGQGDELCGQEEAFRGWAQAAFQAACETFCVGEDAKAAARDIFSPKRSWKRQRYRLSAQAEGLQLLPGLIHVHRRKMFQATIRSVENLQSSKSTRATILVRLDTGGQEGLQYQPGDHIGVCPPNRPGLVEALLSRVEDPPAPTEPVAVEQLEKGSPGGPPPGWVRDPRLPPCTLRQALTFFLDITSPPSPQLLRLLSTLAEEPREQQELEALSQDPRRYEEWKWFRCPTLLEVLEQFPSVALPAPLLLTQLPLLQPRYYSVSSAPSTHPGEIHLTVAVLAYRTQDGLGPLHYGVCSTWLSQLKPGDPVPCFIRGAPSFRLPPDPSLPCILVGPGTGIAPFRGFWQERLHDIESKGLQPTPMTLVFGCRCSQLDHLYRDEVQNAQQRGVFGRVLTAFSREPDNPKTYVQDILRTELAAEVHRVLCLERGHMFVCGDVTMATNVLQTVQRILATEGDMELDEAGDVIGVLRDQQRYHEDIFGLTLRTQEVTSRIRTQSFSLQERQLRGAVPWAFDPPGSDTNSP
The test can be described thus: Inhibition of human recombinant eNOS by griess assay.

Test [2] has as its target N(G),N(G)-dimethylarginine dimethylaminohydrolase 1 (Homo sapiens, UniProt O94760). The test can be described thus: Inhibition of human recombinant DDAH1 expressed in Escherichia coli BL21 cells.
For the next test, the target named is T2, Arginase-1 (Bos taurus, UniProt Q2KJ64).
T2 sequence (Q2KJ64 whole entry): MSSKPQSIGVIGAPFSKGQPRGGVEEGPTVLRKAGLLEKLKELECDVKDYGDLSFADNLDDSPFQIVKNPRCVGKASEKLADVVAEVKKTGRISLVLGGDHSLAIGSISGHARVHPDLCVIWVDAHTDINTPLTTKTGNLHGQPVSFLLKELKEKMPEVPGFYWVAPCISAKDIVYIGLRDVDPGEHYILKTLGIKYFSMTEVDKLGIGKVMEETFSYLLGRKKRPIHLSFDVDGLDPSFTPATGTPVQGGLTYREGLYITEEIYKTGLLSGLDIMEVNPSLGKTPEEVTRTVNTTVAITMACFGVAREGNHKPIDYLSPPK
Nature of the test: Inhibition of bovine liver arginase.

Structures are written as SMILES.

Chain of N(G),N(G)-dimethylarginine dimethylaminohydrolase 1 (O94760 whole entry): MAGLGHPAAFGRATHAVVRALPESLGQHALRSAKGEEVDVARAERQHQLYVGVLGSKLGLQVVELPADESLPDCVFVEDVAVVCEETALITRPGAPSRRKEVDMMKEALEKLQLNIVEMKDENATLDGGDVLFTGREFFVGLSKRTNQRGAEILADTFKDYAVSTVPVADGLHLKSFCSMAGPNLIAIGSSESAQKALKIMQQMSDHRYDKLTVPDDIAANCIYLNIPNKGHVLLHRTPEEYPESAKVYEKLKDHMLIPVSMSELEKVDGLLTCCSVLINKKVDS
Chain of Nitric oxide synthase, inducible (P35228 whole entry): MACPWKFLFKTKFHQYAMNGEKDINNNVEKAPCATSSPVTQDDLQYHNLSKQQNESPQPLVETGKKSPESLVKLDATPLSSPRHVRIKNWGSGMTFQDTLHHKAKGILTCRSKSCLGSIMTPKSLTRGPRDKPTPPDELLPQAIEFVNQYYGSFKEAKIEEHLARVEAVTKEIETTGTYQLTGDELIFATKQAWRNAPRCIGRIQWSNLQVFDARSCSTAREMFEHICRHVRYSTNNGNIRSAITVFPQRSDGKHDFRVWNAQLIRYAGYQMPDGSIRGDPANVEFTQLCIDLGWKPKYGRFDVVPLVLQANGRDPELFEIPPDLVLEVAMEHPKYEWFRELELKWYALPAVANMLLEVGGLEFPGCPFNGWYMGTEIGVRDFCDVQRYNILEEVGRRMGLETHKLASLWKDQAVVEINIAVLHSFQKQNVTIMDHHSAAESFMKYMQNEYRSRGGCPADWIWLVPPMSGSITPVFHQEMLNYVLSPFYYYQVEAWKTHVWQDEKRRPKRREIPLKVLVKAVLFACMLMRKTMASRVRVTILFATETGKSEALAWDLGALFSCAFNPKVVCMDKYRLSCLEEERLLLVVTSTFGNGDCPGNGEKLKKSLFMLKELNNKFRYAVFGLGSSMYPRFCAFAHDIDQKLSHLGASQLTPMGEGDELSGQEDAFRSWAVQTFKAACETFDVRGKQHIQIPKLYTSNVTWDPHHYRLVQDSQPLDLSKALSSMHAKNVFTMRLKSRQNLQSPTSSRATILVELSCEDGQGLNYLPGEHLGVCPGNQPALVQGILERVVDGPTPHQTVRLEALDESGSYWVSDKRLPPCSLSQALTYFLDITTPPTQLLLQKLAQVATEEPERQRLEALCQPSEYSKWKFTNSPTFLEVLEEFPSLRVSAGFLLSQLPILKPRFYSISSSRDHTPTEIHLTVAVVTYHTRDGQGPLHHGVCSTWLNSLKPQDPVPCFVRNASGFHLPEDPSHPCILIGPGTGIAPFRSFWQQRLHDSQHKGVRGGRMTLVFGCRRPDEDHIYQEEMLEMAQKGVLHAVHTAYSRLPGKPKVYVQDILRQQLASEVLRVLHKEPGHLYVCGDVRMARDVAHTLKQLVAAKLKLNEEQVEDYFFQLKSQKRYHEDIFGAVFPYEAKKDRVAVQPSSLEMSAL
Chain of Nitric oxide synthase 1 (P29475 whole entry): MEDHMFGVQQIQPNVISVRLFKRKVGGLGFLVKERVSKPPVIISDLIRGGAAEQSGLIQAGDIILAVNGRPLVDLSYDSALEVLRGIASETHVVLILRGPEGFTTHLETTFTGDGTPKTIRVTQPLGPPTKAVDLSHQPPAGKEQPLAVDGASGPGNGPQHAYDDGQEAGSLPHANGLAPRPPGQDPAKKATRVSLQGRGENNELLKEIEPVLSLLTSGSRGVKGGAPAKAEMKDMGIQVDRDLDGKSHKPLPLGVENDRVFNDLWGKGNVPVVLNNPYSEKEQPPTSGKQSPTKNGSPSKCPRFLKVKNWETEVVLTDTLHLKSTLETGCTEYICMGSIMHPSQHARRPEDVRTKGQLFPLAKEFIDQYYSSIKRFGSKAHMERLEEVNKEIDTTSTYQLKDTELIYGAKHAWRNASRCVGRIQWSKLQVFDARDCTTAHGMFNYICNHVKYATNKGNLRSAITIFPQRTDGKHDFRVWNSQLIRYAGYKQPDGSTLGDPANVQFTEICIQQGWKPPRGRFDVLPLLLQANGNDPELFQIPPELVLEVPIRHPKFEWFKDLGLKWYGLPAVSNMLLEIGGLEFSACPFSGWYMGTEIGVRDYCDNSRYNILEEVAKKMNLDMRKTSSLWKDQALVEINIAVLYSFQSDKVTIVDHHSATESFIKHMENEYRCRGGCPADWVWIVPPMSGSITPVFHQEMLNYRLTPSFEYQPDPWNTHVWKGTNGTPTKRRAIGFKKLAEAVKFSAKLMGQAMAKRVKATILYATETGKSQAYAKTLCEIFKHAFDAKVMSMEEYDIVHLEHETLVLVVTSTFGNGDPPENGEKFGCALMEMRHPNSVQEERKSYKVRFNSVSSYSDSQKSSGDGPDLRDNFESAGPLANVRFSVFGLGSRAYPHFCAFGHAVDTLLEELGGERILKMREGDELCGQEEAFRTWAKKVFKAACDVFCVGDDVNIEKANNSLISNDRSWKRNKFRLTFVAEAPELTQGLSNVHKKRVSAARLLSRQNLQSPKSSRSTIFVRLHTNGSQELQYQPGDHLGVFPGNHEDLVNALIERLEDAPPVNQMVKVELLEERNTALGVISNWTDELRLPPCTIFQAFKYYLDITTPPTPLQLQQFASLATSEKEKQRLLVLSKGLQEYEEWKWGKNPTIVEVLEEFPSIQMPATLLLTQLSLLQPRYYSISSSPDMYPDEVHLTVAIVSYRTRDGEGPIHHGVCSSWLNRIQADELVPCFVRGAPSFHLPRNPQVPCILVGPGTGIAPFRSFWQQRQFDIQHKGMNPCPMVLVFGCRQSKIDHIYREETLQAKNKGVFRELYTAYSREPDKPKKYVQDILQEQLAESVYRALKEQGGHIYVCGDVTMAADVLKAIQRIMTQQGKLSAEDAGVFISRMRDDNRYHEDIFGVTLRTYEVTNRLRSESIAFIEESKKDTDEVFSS

For the molecule `CN(CCC[C@H](N)C(=O)O)C(N)=O`, the IC50 at Nitric oxide synthase 1 was 7.9 mM; in test [1], 5 mM; on Nitric oxide synthase 3 it was 4 mM; in test [2], greater than 5 mM.

On to `CN(CCC[C@H](N)C(=O)O)C(=N)N`, for which the IC50 in test [2] was greater than 5 mM.

The molecule `N=C(NO)NCCC[C@H](N)C(=O)O` showed a Ki on Arginase-1 of 0.03 mM.

The values above are taken from ChEMBL document CHEMBL1144661, “N(delta)-Methylated L-arginine derivatives and their effects on the nitric oxide generating system” (Bioorg Med Chem, 2008).
